Measured values reported in the NIST ThermoML archive (doi:10.1016/j.jct.2011.08.016).

Experiment: xn = mol fraction of the nth substance listed
Settings: Liquid, Vibrating tube method

CCCCCCCCCC [decane] + CCCCCCCC
mass density [kg/m3]
Settings	x2 = 0.0616	x2 = 0.2801	x2 = 0.5314	x2 = 0.7736
353.12 K, 10000 kPa	–	687.61	680.99	673.43
353.12 K, 10990 kPa	693.88	688.64	682.03	674.52
353.12 K, 12000 kPa	694.85	689.64	683.07	675.55
353.12 K, 13000 kPa	695.8	690.64	684.09	676.59
353.12 K, 14000 kPa	696.76	691.6	685.09	677.61
353.12 K, 15000 kPa	697.7	692.59	686.08	678.66
353.12 K, 16000 kPa	698.61	693.55	687.05	679.66
353.12 K, 17000 kPa	699.52	694.46	688	680.68
353.12 K, 18000 kPa	700.43	695.35	688.93	681.63
353.12 K, 19000 kPa	701.32	696.27	689.85	682.58
353.12 K, 20000 kPa	702.19	697.16	690.77	683.51
353.12 K, 21000 kPa	703.05	698.02	691.66	684.41
353.12 K, 22000 kPa	703.89	698.88	692.54	685.32
353.12 K, 23000 kPa	704.72	699.72	693.39	686.21
353.12 K, 24000 kPa	705.52	700.52	694.23	687.06
353.12 K, 25000 kPa	706.29	701.34	695.07	687.92
363.02 K, 1000 kPa	–	–	662.89	–
363.02 K, 2000 kPa	–	–	664.16	–
363.02 K, 3000 kPa	–	–	665.39	–
363.02 K, 4000 kPa	–	–	666.61	–
363.02 K, 5000 kPa	–	–	667.85	–
363.02 K, 6000 kPa	–	–	669.05	–
363.02 K, 7000 kPa	–	–	670.24	–
363.02 K, 8000 kPa	–	–	671.39	–
363.02 K, 9000 kPa	–	–	672.53	–
363.02 K, 10000 kPa	–	–	673.66	–
363.02 K, 10990 kPa	–	–	674.79	–
363.02 K, 12000 kPa	–	–	675.87	–
363.02 K, 13000 kPa	–	–	676.95	–
363.02 K, 14000 kPa	–	–	678.01	–
363.02 K, 15000 kPa	–	–	679.06	–
363.02 K, 16000 kPa	–	–	680.09	–
363.02 K, 17000 kPa	–	–	681.1	–
363.02 K, 18000 kPa	–	–	682.1	–
363.02 K, 19000 kPa	–	–	683.1	–
363.02 K, 20000 kPa	–	–	684.05	–
363.02 K, 21000 kPa	–	–	685	–
363.02 K, 22000 kPa	–	–	685.91	–
363.02 K, 23000 kPa	–	–	686.82	–
363.02 K, 24000 kPa	–	–	687.69	–
363.02 K, 25000 kPa	–	–	688.57	–
363.03 K, 1000 kPa	675.72	–	–	–
363.03 K, 2000 kPa	676.86	–	–	–
363.03 K, 3000 kPa	678.03	–	–	–
363.03 K, 4000 kPa	679.17	–	–	–
363.03 K, 5000 kPa	680.28	–	–	–
363.03 K, 6000 kPa	681.38	–	–	–
